The values below come from ChEMBL document CHEMBL5376004, “Discovery and Development of Quinazolinones and Quinazolinediones for Ameliorating Nonalcoholic Fatty Liver Disease (NAFLD) by Modulating COP1-ATGL Axis” (J Med Chem, 2023).

In data set [1] the target is COP1-AGTL (Homo sapiens) (UniProt Q96AD5+Q8NHY2). Kind of data set: Induction of COP1 to ATGL stabilization (unknown origin) expressed in HEK293-A cells assessed as reduction in ATGL ubiquitination incubated for 6 hrs by Western blotting analysis. Format: cell-based. (In western blotting, separated proteins are transferred to a membrane and probed.)
COP1-AGTL (Homo sapiens), sequence (Q8NHY2 whole entry, looked up): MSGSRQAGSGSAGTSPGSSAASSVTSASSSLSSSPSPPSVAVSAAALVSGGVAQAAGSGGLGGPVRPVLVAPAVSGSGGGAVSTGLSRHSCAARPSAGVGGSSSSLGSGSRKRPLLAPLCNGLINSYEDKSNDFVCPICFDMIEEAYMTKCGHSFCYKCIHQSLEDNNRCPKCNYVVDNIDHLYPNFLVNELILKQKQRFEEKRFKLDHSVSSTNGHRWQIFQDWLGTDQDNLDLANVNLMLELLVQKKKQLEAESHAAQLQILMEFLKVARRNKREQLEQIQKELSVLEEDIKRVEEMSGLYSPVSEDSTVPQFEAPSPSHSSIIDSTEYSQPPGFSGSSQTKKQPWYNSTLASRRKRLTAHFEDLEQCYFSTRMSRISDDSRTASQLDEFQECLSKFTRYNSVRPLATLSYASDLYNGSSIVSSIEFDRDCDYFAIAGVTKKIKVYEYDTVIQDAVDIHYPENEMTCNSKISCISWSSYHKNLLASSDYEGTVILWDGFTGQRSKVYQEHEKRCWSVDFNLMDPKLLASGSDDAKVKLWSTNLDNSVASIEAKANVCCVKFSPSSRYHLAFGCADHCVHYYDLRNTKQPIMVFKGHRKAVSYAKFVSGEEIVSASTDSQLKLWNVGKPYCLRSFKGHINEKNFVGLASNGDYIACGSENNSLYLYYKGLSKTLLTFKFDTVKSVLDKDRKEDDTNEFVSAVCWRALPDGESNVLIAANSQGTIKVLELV
COP1-AGTL (Homo sapiens), sequence (Q96AD5 whole entry, looked up): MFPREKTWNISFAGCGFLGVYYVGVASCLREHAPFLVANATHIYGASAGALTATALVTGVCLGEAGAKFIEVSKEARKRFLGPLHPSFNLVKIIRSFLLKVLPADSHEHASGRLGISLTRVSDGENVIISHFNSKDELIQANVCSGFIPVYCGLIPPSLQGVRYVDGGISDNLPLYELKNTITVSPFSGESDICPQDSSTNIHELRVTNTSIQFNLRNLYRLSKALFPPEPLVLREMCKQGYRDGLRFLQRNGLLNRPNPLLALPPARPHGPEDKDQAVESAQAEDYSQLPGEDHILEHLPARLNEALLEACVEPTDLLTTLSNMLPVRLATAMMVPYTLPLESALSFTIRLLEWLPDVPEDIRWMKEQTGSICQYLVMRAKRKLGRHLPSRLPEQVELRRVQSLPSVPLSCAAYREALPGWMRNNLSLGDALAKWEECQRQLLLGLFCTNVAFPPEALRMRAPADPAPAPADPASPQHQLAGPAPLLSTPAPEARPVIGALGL
Data set [2] in a line: Metabolic stability in mouse liver microsomes assessed as hepatic blood flow. Format: ADME, Microsome. The note with it: read-out: QH. Background: Liver microsomes are vesicles of endoplasmic reticulum, rich in cytochrome P450 enzymes.
Data set [3] in a line: Metabolic stability in mouse liver microsomes assessed as half life. Format: ADME, Microsome.
A short description of data set [4]: Stability in human plasma assessed as compound remaining after 2 hrs. Format: ADME, cell-free. The following applies: read-out: Stability.
The subject of data set [5] is HepG2. The experiment in a line: Reduction in lipid droplets in human HepG2 cells by […] staining based confocal microscopic analysis. Format: functional, cell-based.
The nature of data set [6]: Stability in mouse plasma assessed as compound remaining after 2 hrs. The following applies: read-out: Stability. The format is ADME, cell-free.
Data set [7] can be described thus: Metabolic stability in human liver microsomes assessed as half life. The format is ADME, Microsome.
Data set [8] can be described thus: Aqueous solubility of compound at pH 7.4. Format: physicochemical.
Data set [9] can be described thus: Metabolic stability in human liver microsomes assessed as intrinsic clearance per mg of protein. The format is ADME, Microsome. The note with it: read-out: CLH.
The nature of data set [10]: Metabolic stability in human liver microsomes assessed as hepatic blood flow. The format is ADME, Microsome. The note with it: read-out: QH.
Data set [11] concerns Hepatocyte. The experiment in a line: Upregulation of ATGL protein level in mouse primary hepatocytes incubated for 24 hrs by Western blotting analysis. Format: functional, cell-based. The following applies: dose 10-500 nM.
Data set [12] can be described thus: Lipophilicity, logD of compound. Format: physicochemical. The note with it: octanol/water.
The nature of data set [13]: Metabolic stability in mouse liver microsomes assessed as intrinsic clearance per mg of protein. The format is ADME, Microsome. The following applies: read-out: CLH.

As usually defined, the half-life is how long it takes for the measured level to halve. Broadly, the solubility is how much of the substance goes into solution per volume. A high value points to much dissolved substance. One may read the logD as lipophilicity at a set pH, counting ionised and neutral species. Lower therefore signals lower lipophilicity.

Molecules are shown by their SMILES. Converted amounts (≈) assume the structure as drawn. The source made the active and inactive calls. The calls are words filed in the database; no cut-off is given here.

Regarding `COCCn1cnc2ccc(NC(=O)Nc3cccc(C(C)O)c3)cc2c1=O` (stereo unspecified), in data set [1], the outcome was inactive.
`COCCn1cnc2ccc(NC(=O)Nc3cccc(C(C)=O)c3)c(-c3ccc(OC)cc3)c2c1=O`: the result in [1] was inactive.
Turning to `COCCn1cnc2ccc(NC(=O)Nc3cccc(OC)c3)cc2c1=O`, the hepatic extraction ratio in [2] was 0.231; in data set [10] it was 0.184. Also, the half-life in [3] was 1.05 h; in [7] it was 2.4 h. The remaining at 2 h in data set [4] turned out to be 73.9%; in [6] it was 84.5%. Besides, the result in data set [5] and in data set [1] was Active. In addition, the solubility in [8] came out at 21.5 µg/mL (≈ 58.4 µM). Further, the values for the microsomal CLint in data set [9] and in data set [13] were 4.9 µL/min/mg and 11 µL/min/mg, respectively. The Activity result in data set [11] is “Dose-Dependent Effect”. The logD in [12] is 3.02.
On to `COCCn1cnc2ccc(NC(=O)NC3CCN(C)CC3)cc2c1=O`, for which the outcome in data set [1] was inactive.
Still for that read-out and setting: the entry for `CCc1cccc(NC(=O)Nc2ccc3ncn(CCOC)c(=O)c3c2)c1` is “inactive”.
On to `COCCn1c(=O)c2cc(NC(=O)Nc3cccc(C(C)=O)c3)ccc2n(CCN2CCCC2)c1=O`, for which the hepatic extraction ratio in data set [2] was determined as 0.26; in data set [10] it was 0.175. Also, the half-life in data set [3] stood at 0.895 h; in data set [7], 2.56 h. For the same compound, the remaining at 2 h turned out to be 32.8% in data set [4] and 50.3% in data set [6]. For the same compound, the outcome in data set [1] was Active. The concentration in solution in [8] (solubility) was 124 µg/mL (≈ 252 µM). Further, the microsomal CLint in data set [9] stood at 4.6 µL/min/mg; in [13], 13 µL/min/mg. The compound further came in with a logD in data set [12] of 2.58.
In the case of `COCCn1c(=O)c2cc(NC(=O)Nc3cccc(C(C)=O)c3)ccc2n(C(C)C)c1=O`, the hepatic extraction ratio in data set [2] was found to be 0.536; in [10], 0.403. The half-life in [3] came to 0.272 h; in data set [7], 0.793 h. Also, the values for the remaining at 2 h in [4] and in data set [6] were 80.8% and 90.7%, respectively. The result in data set [1] was inactive. Moreover, in data set [8], the solubility was 2.8 µg/mL (≈ 6.39 µM). Further, the microsomal CLint in [9] came out at 14.6 µL/min/mg; in data set [13] it was 42.6 µL/min/mg. The logD in [12] turned out to be 2.67.
Turning to `COCCn1cnc2ccc(NC(=O)Nc3ccc(F)cc3)cc2c1=O`, in [1], the result was inactive.
On to `CC(=O)c1cccc(NC(=O)Nc2ccc3ncn(CCN4CCCCC4)c(=O)c3c2)c1`, for which the result in [1] was inactive.
Still for that read-out and setting: the entry for `COCCn1cnc2ccc(NC(=O)Nc3cccc(C(C)=O)c3)c(C3CCNCC3)c2c1=O` is “inactive”; for `CC(=O)c1cccc(NC(=O)Nc2ccc3ncn(CCN(C)C)c(=O)c3c2)c1` it is “inactive”; for `CCCCn1cnc2ccc(NC(=O)Nc3cccc(C(C)=O)c3)cc2c1=O` it is “inactive”.
Still for that read-out and setting: the entry for `COCCn1cnc2ccc(NC(=O)Nc3cccc(C(C)=O)c3)c(-c3ccccc3)c2c1=O` is “Active”.
As to `CC(=O)c1cccc(NC(=O)Nc2ccc3ncn(CCCN4CCOCC4)c(=O)c3c2)c1`, the result in data set [1] was inactive.
Same read-out and setting: the entry for `COCCn1cnc2ccc(NC(=O)Nc3cccc(C(C)=O)c3)c(-c3ccc(C(F)(F)F)cc3)c2c1=O` is “inactive”; for `COCCn1cnc2ccc(NC(=O)Nc3ccccc3)cc2c1=O` it is “inactive”; for `CC(=O)c1cccc(NC(=O)Nc2ccc3nc[nH]c(=O)c3c2)c1` it is “inactive”.
Turning to `COCCn1cnc2ccc(NC(=O)Nc3cccc(C(O)C(F)(F)F)c3)cc2c1=O` (stereo unspecified), the figures for the hepatic extraction ratio in data set [2] and in [10] were 0.462 and 0.415, respectively. The half-life was 0.367 h in [3] and 0.753 h in data set [7]. The remaining at 2 h in data set [4] turned out to be 74.6%; in data set [6] it was 118%. The outcome in [1] was inactive. The solubility in data set [8] came out at 27 µg/mL (≈ 61.9 µM). In addition, the microsomal CLint came out at 15.3 µL/min/mg in [9] and 31.7 µL/min/mg in [13]. The compound also gave a logD in data set [12] of 2.54.
For `COCCn1cnc2ccc(NC(=O)Nc3cccc(C(=O)c4ccccc4)c3)cc2c1=O`, in data set [1], the result was inactive.
Still for that read-out and setting: the entry for `COCCn1cnc2ccc(NC(=O)Nc3cccc(C(C)=O)c3)c(-c3ccc(OC)nc3)c2c1=O` is “inactive”.
As for `COCCn1cnc2ccc(NC(=O)Nc3ccccc3OC)cc2c1=O`, the outcome in data set [1] was inactive.
The same measure, in the same setting: the entry for `COCCn1cnc2ccc(NC(=O)Nc3ccccc3C(F)(F)F)cc2c1=O` is “inactive”; for `COCCn1c(=O)c2cc(NC(=O)Nc3cccc(C(C)=O)c3)ccc2n(C)c1=O` it is “Active”.
Same read-out and setting: the entry for `CCn1cnc2ccc(NC(=O)Nc3cccc(C(C)=O)c3)cc2c1=O` is “inactive”.
For `COCCn1cnc2ccc(NC(=O)Nc3cccc(C(C)=O)c3)c(Br)c2c1=O`, the hepatic extraction ratio in data set [2] stood at 0.167. Moreover, the half-life in data set [3] was 1.78 h. Further, the remaining at 2 h in data set [4] was 10.3%. For the same compound, in [1], the result was Active. For the same compound, the concentration in solution in data set [8] (solubility) was 3.4 µg/mL (≈ 7.4 µM). In data set [12], this compound gave a pH-dependent lipophilicity (logD) of 1.95. In data set [13], the microsomal CLint was 7.5 µL/min/mg.
Take `COCCCn1cnc2ccc(NC(=O)Nc3cccc(C(C)=O)c3)cc2c1=O`: the outcome in data set [1] was Active.
For `COCCn1cnc2ccc(NC(=O)N3CCCCC3)cc2c1=O`, the result in data set [1] was inactive.
On to `COCCn1cnc2ccc(NC(=O)Nc3cccc(C(=O)C(F)(F)F)c3)cc2c1=O`, for which the hepatic extraction ratio in data set [2] worked out at 0.183; in data set [10], 0.262. Moreover, the values for the half-life in [3] and in [7] were 1.41 h and 1.5 h, respectively. For the same compound, the remaining at 2 h came to 62% in [4] and 52.6% in data set [6]. Moreover, in data set [1], the result was inactive. Also, the solubility in [8] amounted to 9.6 µg/mL (≈ 22.1 µM). In addition, the microsomal CLint in data set [9] came to 7.7 µL/min/mg; in data set [13], 8.2 µL/min/mg. This compound also yielded a logD in data set [12] of 4.25.
As to `COCCn1cnc2ccc(NC(=O)N(C)C)cc2c1=O`, in data set [1], the outcome was inactive.
With `COCCn1cnc2ccc(NC(=O)Nc3cccc(C(C)=O)c3)c(-c3ccc(F)cc3)c2c1=O`, the hepatic extraction ratio in data set [2] came to 0.925. Moreover, in data set [3], the half-life was 0.025 h. In addition, the remaining at 2 h in data set [4] was determined as 44.9%. The outcome in [1] was inactive. In [8], this compound came in with a solubility of 31.9 µg/mL (≈ 67.2 µM). The same compound displayed a logD in [12] of 1.9. Also, the microsomal CLint in data set [13] is 456 µL/min/mg.
On to `COCCn1cnc2ccc(NC(=O)Nc3ccc(C(F)(F)F)cc3)cc2c1=O`, for which, in [1], the result was inactive.
The same measure, in the same setting: the entry for `COCCn1cnc2ccc(NC(=O)Nc3cccc(C(F)(F)F)c3)cc2c1=O` is “inactive”; for `COCCn1cnc2ccc(NC(=O)Nc3cccc(C(C)=O)c3)c(C3=CCNCC3)c2c1=O` it is “inactive”.
Take `COCCn1c(=O)[nH]c2ccc(NC(=O)Nc3cccc(C(C)=O)c3)cc2c1=O`: the hepatic extraction ratio in data set [2] was determined as 0.228; in data set [10], 0.076. Besides, the results for the half-life in data set [3] and in data set [7] were 1.25 h and 7.16 h, respectively. For the same compound, the remaining at 2 h in data set [4] is 97.4%; in data set [6], 68.4%. For the same compound, the result in data set [1] was Active. Besides, in data set [8], the solubility is 0.8 µg/mL (≈ 2.02 µM). For the same compound, the microsomal CLint stood at 1.8 µL/min/mg in [9] and 11.4 µL/min/mg in data set [13]. The compound also yielded a logD in [12] of 2.17.
Turning to `COCCn1cnc2ccc(NC(=O)Nc3ccc(OC)cc3)cc2c1=O`, the result in data set [1] was Active.
Consider `CC(C)[N+](C)(CCOC(=O)C1c2ccccc2Oc2ccccc21)C(C)C` [PROPANTHELINE], for which the remaining at 2 h in [6] is 0%.
In the case of `CC(=O)c1cccc(NC(=O)Nc2ccc3ncn(CCN4CCOCC4)c(=O)c3c2)c1`, the result in [1] was inactive.
